For one data set, the target named is T1, FAP (Homo sapiens, UniProt Q12884).
T1 sequence (Q12884 1-760): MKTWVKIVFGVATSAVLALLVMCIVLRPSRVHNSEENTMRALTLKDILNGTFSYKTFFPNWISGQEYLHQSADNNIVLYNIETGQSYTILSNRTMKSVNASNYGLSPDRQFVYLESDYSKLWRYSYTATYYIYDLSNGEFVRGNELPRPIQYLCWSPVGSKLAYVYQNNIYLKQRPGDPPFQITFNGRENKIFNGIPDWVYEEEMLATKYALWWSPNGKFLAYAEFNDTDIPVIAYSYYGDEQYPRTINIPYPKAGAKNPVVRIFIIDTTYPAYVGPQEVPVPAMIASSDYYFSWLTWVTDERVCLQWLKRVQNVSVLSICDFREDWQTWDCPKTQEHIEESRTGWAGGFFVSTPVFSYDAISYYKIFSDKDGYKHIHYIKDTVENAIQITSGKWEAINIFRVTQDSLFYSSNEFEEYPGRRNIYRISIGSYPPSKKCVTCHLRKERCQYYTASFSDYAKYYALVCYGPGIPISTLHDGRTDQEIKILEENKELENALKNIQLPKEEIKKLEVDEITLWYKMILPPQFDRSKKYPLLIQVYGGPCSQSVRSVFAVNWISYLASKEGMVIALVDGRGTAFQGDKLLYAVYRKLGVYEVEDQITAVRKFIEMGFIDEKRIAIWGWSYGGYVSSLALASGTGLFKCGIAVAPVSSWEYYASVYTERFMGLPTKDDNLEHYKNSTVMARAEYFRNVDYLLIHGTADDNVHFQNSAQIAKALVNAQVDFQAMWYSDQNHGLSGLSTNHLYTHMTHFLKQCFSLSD
As to the kind of experiment: In vitro inhibition assay on human FAP (Z-GP-AMC substrate). Type of data set: biochemical. The conditions noted are these: enzymatic assay; 20 µM Z-GP-AMC, 20 nM FAP; unit inferred. Here is the method:
Enzymatic activity of human FAP (hFAP) and mouse FAP (mFAP) on the Z-GP-AMC substrate was measured at room temperature on a Hidex microplate reader by monitoring the fluorescence at an excitation wavelength of 360 nm and an emission wavelength of 465 nm. The reaction mixture contained 20 µM substrate, 20 nM FAP, assay buffer (50 mM Tris, 100 mM NaCl, 1 mM EDTA, pH 7.4) and tested compound (serial dilution from 10^-6 to 10^-12) in a total volume of 50 µL.

Data set [1] is described as follows: LogD7.4 shake-flask method (n-octanol/PBS). It is filed as physicochemical. The following applies: radiolabeled compound; n-octanol/PBS pH 7.4; triplicates. As for the experimental part:
Distribution coefficients (LogD7.4 values) were determined by a shake-flask method. Sample containing the ^203Pb-labeled compound was added to a vial containing 600 µL PBS (pH 7.4) and 600 µL n-octanol. The vial was vortexed vigorously and then centrifuged for 10 min for phase separation. Samples of the octanol (200 µL) and aqueous (200 µL) phases were taken and counted on a PerkinElmer WIZARD 2480 gamma counter. LogD7.4 value was calculated by using the equation: LogD7.4 = log [(counts in octanol phase)/(counts in aqueous phase)]. All the experiments were performed in triplicates.

Another data set has as its system FAP^+ U-87 cells. As to the kind of experiment: Cytotoxicity assay (resazurin) in U-87 cells. The following applies: single dose 1 µM, incubation time not stated. It is filed as cell-based. As for the experimental part:
In 96-well plates, U-87 cells (3 × 10^3) were seeded in each well and incubated at 37 °C and 5% CO2 for 24 h. The medium was removed and the wells were washed once with PBS. The cytotoxic drug (positive control) or the eFAP conjugate containing the drug were prepared at various concentrations (i.e., 1, 10, 100, 1000 nM) in DMEM culture medium, supplemented with 2 mM L-glutamine, 10% FBS, 50 units/mL penicillin, and 50 µg/mL streptomycin. Medium was used as a negative control. Cells were incubated with 100 µL of the tested compounds for 1, 24, 48, and 72 h. After incubation, medium was removed and each well was washed once with PBS. Next, 100 µL of 10% resazurin solution in culture medium was added to each well and incubated for 2.5 h. Fluorescence measurements were carried out using a microplate reader at 544 nm excitation and 590 nm emission.
(Resazurin is reduced to fluorescent resorufin, in cell work by metabolically active cells.)

A further data set has as its system U-87 tumor. As to the kind of experiment: Near-infrared fluorescence imaging of U-87 tumor bearing mice. The conditions noted are these: 2 nmol intravenous. Type of data set: in vivo. The text has this:
Six-week-old male Balb/c nu/nu-specific and opportunistic pathogen-tree (SOPF) mice were housed in individually ventilated cages, with 4 mice per cage. Upon arrival, mice were acclimated for 1 week, with access to food and water ad libitum. Mice were subcutaneously inoculated on the right shoulder with U-87 or HT-1080.hFAP cells (1 × 10^6 cells). Xenografts were allowed to grow until they reached an appropriate size at the start of the studies. All animal experiments were approved by the Animal Welfare Committee of the Erasmus MC and were conducted in agreement with institutional guidelines (license number: AVD101002017867).
Evaluation of targeting performance of eFAP-17 in near-infrared fluorescence imaging of U-87 tumor bearing mice after intravenous injection of 2 nmol of the probe are given in Figure 9 showing A) NIRF imaging of U-87 tumor bearing mice at 1 h after intravenous injection of 2 nmol of CW800 (left, negative control) or eFAP-17 (right) and B) image of excised tumors 2.5 h post administration of CW800 (left) or eFAP-17 (right).

What is called IC50 is the concentration at which inhibition is half-maximal. Lower therefore signals inhibition by little substance. For orientation: cell viability means the share of living cells, or the viability signal relative to a control. Read a high cell viability as less harm to the cells.

In the case of `N#C[C@@H]1CC(F)(F)CN1C(=O)CNC(=O)c1ccnc2c(OCCCNC(=O)CCC(C(=O)O)N3CCN(CC(=O)O)CCN(CC(=O)O)CCN(CC(=O)O)CC3)cccc12` (stereo partly drawn) [eFAP-8, 2,2',2"-(10-(1-Carboxy-4-((3-((4-((2-((S)-2-cyano-4,4-difluoropyrrolidin-1-yl)-2-oxoethyl)carbamoyl)quinolin-8-yl)oxy)propyl)amino)-4-oxobutyl)-1,4,7,10-tetraazacyclododecane-1,4,7-triyl)triacetic acid], the midpoint of inhibition against FAP, the IC50, lay at 1.7 ± 0.5 nM. Besides, the LogD7.4 in data set [1] is -3.58 ± 0.09. As for `N#C[C@@H]1CC(F)(F)CN1C(=O)CNC(=O)c1ccnc2c(OCCCNC(=O)CN3CCN(CCNC(=O)CN4CCN(CC(=O)O)CCN(CC(=O)O)CCN(CC(=O)O)CC4)CC3)cccc12` [eFAP-13, (S)-2,2',2"-(10-(2-((2-(4-(2-((3-((4-((2-(2-Cyano-4,4-difluoropyrrolidin-1-yl)-2-oxoethyl)carbamoyl)quinolin-8-yl)oxy)propyl)amino)-2-oxoethyl)piperazin-1-yl)ethyl)amino)-2-oxoethyl)-1,4,7,10-tetraazacyclododecane-1,4,7-triyl)triacetic acid], the half-maximal inhibitory concentration (IC50) at FAP was 1.7 ± 0.5 nM. The compound also gave a LogD7.4 in data set [1] of -3.28 ± 0.15.

`N#C[C@@H]1CC(F)(F)CN1C(=O)CNC(=O)c1ccnc2c(OCCCNC(=O)CN3CCC(NC(=O)CN4CCN(CC(=O)O)CCN(CC(=O)O)CCN(CC(=O)O)CC4)CC3)cccc12` [eFAP-10, (S)-2,2',2"-(10-(2-((1-(2-((3-((4-((2-(2-Cyano-4,4-difluoropyrrolidin-1-yl)-2-oxoethyl)carbamoyl)quinolin-8-yl)oxy)propyl)amino)-2-oxoethyl)piperidin-4-yl)amino)-2-oxoethyl)-1,4,7,10-tetraazacyclododecane-1,4,7-triyl)triacetic acid] came in with a LogD7.4 in data set [1] of -3.64 ± 0.02. In turn, `N#C[C@@H]1CC(F)(F)CN1C(=O)CNC(=O)c1ccnc2c(OCCCNC(=O)CN3CCN(C(=O)CN4CCN(CC(=O)O)CCN(CC(=O)O)CCN(CC(=O)O)CC4)CC3)cccc12` [eFAP-12, (S)-2,2',2"-(10-(2-(4-(2-((3-((4-((2-(2-Cyano-4,4-difluoropyrrolidin-l-yl)-2-oxoethyl)carbamoyl)quinolin-8-yl)oxy)propyl)amino)-2-oxoethyl)piperazin-1-yl)-2-oxoethyl)-1,4,7,10-tetraazacyclododecane-1,4,7-triyl)triacetic acid] had a LogD7.4 in data set [1] of -3.72 ± 0.08. Regarding `N#C[C@@H]1CC(F)(F)CN1C(=O)CNC(=O)c1ccnc2c(OCCCNC(=O)C3CCC(CNC(=O)CN4CCN(CC(=O)O)CCN(CC(=O)O)CCN(CC(=O)O)CC4)CC3)cccc12` (stereo partly drawn) [eFAP-9, 2,2',2"-(10-(2-(((4-((3-((4-((2-((S)-2-Cyano-4,4-difluoropyrrolidin-1-yl)-2-oxoethyl)carbamoyl)quinolin-8-yl)oxy)propyl)carbamoyl)cyclohexyl)methyl)amino)-2-oxoethyl)-1,4,7,10-tetraazacyclododecane-1,4,7-triyl)triacetic acid], on FAP, the IC50 was 3.6 ± 2.3 nM. In addition, the LogD7.4 in data set [1] is listed as -3.47 ± 0.07. In the same order, the values of `N#C[C@@H]1CC(F)(F)CN1C(=O)CNC(=O)c1ccnc2c(OCCCNC(=O)COCC(=O)Nc3ccc(CNC(=O)CN4CCN(CC(=O)O)CCN(CC(=O)O)CCN(CC(=O)O)CC4)cc3)cccc12` [eFAP-11, (S)-2,2',2"-(10-(2-((4-(2-(2-((3-((4-((2-(2-Cyano-4,4-difluoropyrrolidin-1-yl)-2-oxoethyl)carbamoyl)quinolin-8-yl)oxy)propyl)amino)-2-oxoethoxy)acetamido)benzyl)amino)-2-oxoethyl)-1,4,7,10-tetraazacyclododecane-1,4,7-triyl)triacetic acid] are 1.8 ± 0.8 nM and -3.34 ± 0.07. As for `COc1cc2cc(c1Cl)N(C)C(=O)C[C@H](OC(=O)[C@H](C)N(C)C(=O)CCS)[C@]1(C)O[C@H]1[C@H](C)[C@@H]1C[C@@](O)(NC(=O)O1)[C@H](OC)/C=C/C=C(\C)C2` [DM1, Mertansine], the cell viability with FAP^+ U-87 cells was found to be 40%. Regarding “(1^4S,1^6S,3^2S,3^3S,2R,4S,10E,12E,14R)-8^6-chloro-1^4-hydroxy-8^5,14-dimethoxy-3^3,2,7,10-tetramethyl-1^2,6-dioxo-7-aza-1(6,4)-oxazinana-3(2,3)-oxirana-8(1,3)-benzenacyclotetradecaphane-10,12-dien-4-yl N-(3-((3-((3-((4-((2-((S)-2-cyano-4,4-difluoropyrrolidin-1-yl)-2-oxoethyl)carbamoyl)quinolin-8-yl)oxy)propyl)amino)-3-oxopropyl)disulfaneyl)propanoyl)-N-methyl-L-alaninate [eFAP-18]”, the cell viability result in the data set on FAP^+ U-87 cells is “approximately 25%”.

Regarding `CC1(C)C(/C=C/C2=C(Oc3ccc(S(=O)(=O)O)cc3)C(=C/C=C3/N(CCCCCC(=O)NCCCOc4cccc5c(C(=O)NCC(=O)N6CC(F)(F)C[C@H]6C#N)ccnc45)c4ccc(S(=O)(=O)O)cc4C3(C)C)/CCC2)=[N+](CCCCS(=O)(=O)[O-])c2ccc(S(=O)(=O)O)cc21` [eFAP-17, 4-(2-((E)-2-((E)-3-(2-((E)-1-(6-((3-((4-((2-((S)-2-Cyano-4,4-difluoropyrrolidin-1-yl)-2-oxoethyl)carbamoyl)quinolin-8-yl)oxy)propyl)amino)-6-oxohexyl)-3,3-dimethyl-5-sulfoindolin-2-ylidene)ethylidene)-2-(4-sulfophenoxy)cyclohex-1-en-1-yl)vinyl)-3,3-dimethyl-5-sulfo-3H-indol-1-ium-1-yl)butane-1-sulfonate], it took 5.6 ± 1.6 nM to reach half-maximal inhibition on FAP (IC50). The “accumulation in healthy tissues” value in the data set with U-87 tumor (NIRF imaging) is reported as “low accumulation in healthy tissues”. In addition, the “uptake in the FAP overexpressing tumor” value with U-87 tumor (NIRF imaging at 1 h, excised tumors 2.5 h) is given as “high uptake in the FAP overexpressing tumor”.

The values above are taken from patent EP4342890A1, “PLATFORM AND SCAFFOLD FOR FAP TARGETING AGENTS” (Erasmus University Rotterdam Medical Center, priority 2022, dated 2024).
